In patent US20110053993A1, “PRODRUGS OF DESAZADESFERROTHIOCIN POLYETHER ANALOGUES AS METAL CHELATION AGENTS” (FERROKIN BIOSCIENCES, INC., priority 2009, published 2011):

Assay: In vitro pharmacokinetic (metabolic) stability in human whole blood
Type: in vitro ADME
Conditions: 5 μM test compound, 37° C., time points 0, 0.5, 1, 4, 6 and 24 hours, LC/MS/MS, percent compound remaining
Method: In Vitro Pharmacokinetic Stability Evaluation
Compounds were tested for metabolic stability in human whole blood. Such testing is commonly undertaken prior to or along with advanced preclinical testing in order to identify compounds with desirable pharmacokinetic properties. Into each of 6 centrifuge tubes was added 2 μL of test compound and 198 μL of human whole blood, taken from normal, healthy volunteers, to achieve a final concentration of 5 μM. Tubes were then incubated at 37° C. at approximately 100 rpm on an orbital shaker. One of the tubes was taken at designated time points including 0, 0.5, 1, 4, 6 and 24 hours. The reaction was stopped by the addition of 4 volumes of cold methanol. Samples were centrifuged at 20,000 rpm for 20 minutes to precipitate protein. A 200 μL aliquot of the supernatant was used for LC/MS/MS analysis for each compound at each time point. All experiments were performed in duplicate. The LC system comprised a Shimadzu liquid chromatograph separation system equipped with degasser DGU-20A3, solvent delivery unit LC-20AD, system controller CBM-20A, column oven CTO-10ASVP and CTC Analytics HTC PAL System. Mass spectrometric analysis was performed using an API 4000 instrument from AB Inc. (Canada) with an ESI interface. The data acquisition and control system were created using Analyst 1.5 software from ABI Inc. All calculations were carried out using Microsoft Excel (2003). Percent compound remaining at each time point was estimated by determining the peak areas from extracted ion chromatograms.

Structure (SMILES)	Half Life [h]
COCCOCCOCCOc1cccc(C2=N[C@@](C)(C(=O)O)CS2)c1OC(=O)C(C)C [Example 6, (S)-2-(2-(isobutyryloxy)-3-(2-(2-(2-methoxyethoxy)ethoxy)ethoxy)phenyl)-4-methyl-4,5-dihydrothiazole-4-carboxylic acid]	6 to 24
COCCOCCOCCOc1cccc(C2=N[C@@](C)(C(=O)O)CS2)c1OC(=O)N(C)c1ccccc1 [Example 5, (S)-2-(3-(2-(2-(2-methoxyethoxy)ethoxy)ethoxy)-2-(methyl(phenyl)carbamoyloxy)phenyl)-4-methyl-4,5-dihydrothiazole-4-carboxylic acid]	0.5 to 1
COCCOCCOCCOc1cccc(C2=N[C@@](C)(C(=O)OC(C)C)CS2)c1OC(=O)N(C)c1ccccc1 [Example 4, (S)-isopropyl 2-(3-(2-(2-(2-methoxyethoxy)ethoxy)ethoxy)-2-(methyl(phenyl)carbamoyloxy)phenyl)-4-methyl-4,5-dihydrothiazole-4-carboxylate]	>24

Other lines, results leading:

Half Life [h]	Structure (SMILES)
1 to 4	COCCOCCOCCOc1cccc(C2=N[C@@](C)(C(=O)O)CS2)c1OC(=O)N1CCCC1 [Example 3, (S)-2-(3-(2-(2-(2-methoxyethoxy)ethoxy)ethoxy)-2-(pyrrolidine-1-carbonyloxy)phenyl)-4-methyl-4,5-dihydrothiazole-4-carboxylic acid]
>24	COCCOCCOCCOc1cccc(C2=N[C@@](C)(C(=O)OC(C)C)CS2)c1OC(=O)N1CCCC1 [Example 2, (S)-isopropyl 2-(3-(2-(2-(2-methoxyethoxy)ethoxy)ethoxy)-2-(pyrrolidine-1-carbonyloxy)phenyl)-4-methyl-4,5-dihydrothiazole-4-carboxylate]
1 to 4	COCCOCCOCCOc1cccc(C2=N[C@@](C)(C(=O)OC(C)C)CS2)c1O [Example 1, (S)-isopropyl 2-(2-hydroxy-3-(2-(2-(2-methoxyethoxy)ethoxy)ethoxy)phenyl)-4-methyl-4,5-dihydrothiazole-4-carboxylate]
